Data published in publication PMC9917560, “Design, Synthesis and Antimicrobial Evaluation of New N-(1-Hydroxy-1,3-dihydrobenzo[c][1,2]oxaborol-6-yl)(hetero)aryl-2-carboxamides as Potential Inhibitors of Mycobacterial Leucyl-tRNA Synthetase” (International Journal of Molecular Sciences, 2023).
In brackets after ≈: the same amount, converted by molar mass. Read-outs that look alike come from different tables or passages of the source.

What was measured:
[1] = tested on: Staphylococcus aureus subsp. aureus CCM 4223 (ATCC 29213); experiment: Antibacterial microdilution broth (EUCAST); type: cell-based; conditions: read-out: MIC Staphylococcus aureus subsp. aureus
[2] = tested on: Mycobacterium kansasii DSM 44,162 (ATCC 12478); experiment: Antimycobacterial microdilution (resazurin) vs M. kansasii; type: cell-based; conditions: read-out: MIC M. kansasii
[3] = tested on: Candida krusei CCM 8271 (ATCC 6258); experiment: Antifungal microdilution broth (EUCAST); type: cell-based; conditions: Pichia kudriavzevii, read-out: MIC Candida krusei
[4] = tested on: Klebsiella pneumoniae CCM 4415 (ATCC 10031); experiment: Antibacterial microdilution broth (EUCAST); type: cell-based; conditions: Klebsiella pneumoniae, read-out: MIC Klebsiella pneumoniae
[5] = tested on: Candida tropicalis CCM 8264 (ATCC 750); experiment: Antifungal microdilution broth (EUCAST); type: cell-based; conditions: read-out: MIC Candida tropicalis
[6] = tested on: Escherichia coli CCM 3954 (ATCC 25922); experiment: Antibacterial microdilution broth (EUCAST); type: cell-based; conditions: Escherichia coli, read-out: MIC Escherichia coli
[7] = tested on: Mycobacterium avium DSM 44,156 (ATCC 25291); experiment: Antimycobacterial microdilution (resazurin) vs M. avium; type: cell-based; conditions: Mycobacterium avium
[8] = tested on: methicillin-resistant Staphylococcus aureus subsp. aureus (MRSA) CCM 4750 (ATCC 43300); experiment: microbe, parasite or virus in culture; type: cell-based; conditions: read-out: MIC Methicillin-resistant Staphylococcus aureus subsp. aureus
[9] = tested on: Staphylococcus epidermidis CCM 4418 (ATCC 12228); experiment: Antibacterial microdilution broth (EUCAST); type: cell-based; conditions: read-out: MIC Staphylococcus epidermidis
[10] = tested on: Acinetobacter baumannii DSM 30007 (ATCC 19606); experiment: Antibacterial microdilution broth (EUCAST); type: cell-based; conditions: read-out: MIC Acinetobacter baumannii
[11] = tested on: Aspergillus fumigatus ATCC 204305; experiment: Antifungal microdilution broth (EUCAST); type: cell-based; conditions: Aspergillus fumigatus, ATCC204305, read-out: MIC Aspergillus fumigatus
[12] = tested on: Candida parapsilosis CCM 8260 (ATCC 22019); experiment: Antifungal microdilution broth (EUCAST); type: cell-based; conditions: Lodderomyces parapsilosis, read-out: MIC Candida parapsilosis
[13] = tested on: Pseudomonas aeruginosa CCM 3955 (ATCC 27853); experiment: Antibacterial microdilution broth (EUCAST); type: cell-based; conditions: read-out: MIC Pseudomonas aeruginosa
[14] = tested on: Mycolicibacterium aurum DSM 43,999 (ATCC 23366); experiment: Antimycobacterial microdilution (resazurin) vs M. aurum; type: cell-based; conditions: Middlebrook 7H9, resazurin, read-out: MIC M. aurum
[15] = tested on: Mycolicibacterium smegmatis DSM 43,465 (ATCC 607); experiment: Antimycobacterial microdilution (resazurin) vs M. smegmatis; type: cell-based; conditions: Middlebrook 7H9, resazurin, read-out: MIC M. smeg.
[16] = tested on: Lichtheimia corymbifera CCM 8077; experiment: Antifungal microdilution broth (EUCAST); type: cell-based; conditions: Lichtheimia corymbifera, CCM8077, read-out: MIC Lichtheimia corymbifera
HepG2 cell line = experiment: Cytotoxicity screening, CellTiter 96 assay; conditions: for IC50: Homo sapiens, HepG2, 24 h, read-out: IC50 HepG2; for toxicity to HepG2 up to highest tested concentration: tested up to 500 µM (2, 3), 250 µM (12, 17), 100 µM (6, 7, 11) because of solubility
[17] = tested on: Aspergillus flavus CCM 8363; experiment: Antifungal microdilution broth (EUCAST); type: cell-based; conditions: Aspergillus flavus, CCM8363, read-out: MIC Aspergillus flavus
[18] = tested on: Trichophyton interdigitale CCM 8377 (ATCC 9533); experiment: Antifungal microdilution broth (EUCAST); type: cell-based; conditions: Trichophyton interdigitale, read-out: MIC Trichophyton interdigitale
[19] = tested on: Mycobacterium tuberculosis H37Rv CNCTC My 331/88 (ATCC 27294); experiment: Microplate Alamar Blue assay vs Mtb H37Rv; type: cell-based; conditions: Mycobacterium tuberculosis
[20] = tested on: Enterococcus faecalis CCM 4224 (ATCC 29212); experiment: Antibacterial microdilution broth (EUCAST); type: cell-based; conditions: read-out: MIC Enterococcus faecalis
[21] = tested on: Mycobacterium tuberculosis H37Ra ITM-M006710 (ATCC 9431); experiment: Antimycobacterial microdilution (resazurin) vs Mtb H37Ra; type: cell-based
[22] = tested on: Candida albicans CCM 8320 (ATCC 24433); experiment: Antifungal microdilution broth (EUCAST); type: cell-based; conditions: Candida albicans, read-out: MIC Candida albicans

Cc1nccnc1C(=O)Nc1ccc2c(c1)B(O)OC2 [Compound 3, N-(1-hydroxy-1,3-dihydrobenzo[c][1,2]oxaborol-6-yl)-3-methylpyrazine-2-carboxamide]
MIC ([1]; 24h incubation): > 500 µM | MIC ([1]; 48h incubation): > 500 µM | MIC ([2]; Middlebrook 7H9, resazurin): 58.1 µM (≈ 15.6 µg/mL) | MIC ([3]; 24h incubation): > 500 µM | MIC ([3]; 48h incubation): > 500 µM | MIC ([4]; 24h incubation): > 500 µM | MIC ([4]; 48h incubation): > 500 µM | MIC ([5]; 24h incubation): > 500 µM | MIC ([5]; 48h incubation): > 500 µM | melting point: 262.9 to 264 °C | MIC ([6]; 24h incubation): > 500 µM | MIC ([6]; 48h incubation): > 500 µM | MIC ([7]; read-out: MIC M. avium, Middlebrook 7H9, resazurin): > 1850 µM | MIC ([8]; 24 h): > 500 µM | MIC ([8]; 48 h): > 500 µM | MIC ([9]; 24h incubation): > 500 µM | MIC ([9]; 48h incubation): > 500 µM | MIC ([10]; 24h incubation): > 500 µM | MIC ([10]; 48h incubation): > 500 µM | MIC ([11]; 24h incubation): > 500 µM | MIC ([11]; 48h incubation): > 500 µM | MIC ([12]; 24h incubation): > 500 µM | MIC ([12]; 48h incubation): > 500 µM | MIC ([13]; 24h incubation): > 500 µM | MIC ([13]; 48h incubation): > 500 µM | MIC [14]: 14.5 µM (≈ 3.91 µg/mL) | MIC [15]: 14.5 µM (≈ 3.91 µg/mL) | MIC ([16]; 24h incubation): > 500 µM | MIC ([16]; 48h incubation): > 500 µM | IC50 (HepG2 cell line): > 500 µM | toxicity to HepG2 up to highest tested concentration (HepG2 cell line): non-toxic | MIC ([17]; 24h incubation): > 500 µM | MIC ([17]; 48h incubation): > 500 µM | MIC ([18]; 72h incubation): > 500 µM | MIC ([18]; 120h incubation): > 500 µM | MIC ([19]; pH 6.6, read-out: MIC Mtb H37Rv, MABA, Middlebrook 7H9 pH 6.6, recalculated from µg/mL): 92.9 µM (≈ 25 µg/mL) | MIC ([20]; 24h incubation): > 500 µM | MIC ([20]; 48h incubation): > 500 µM | MIC ([21]; read-out: MIC Mtb H37Ra, Middlebrook 7H9, resazurin, recalculated from µg/mL): > 1850 µM | MIC ([22]; 24h incubation): > 500 µM | MIC ([22]; 48h incubation): > 500 µM

Nc1nccnc1C(=O)Nc1ccc2c(c1)B(O)OC2 [Compound 6, 3-amino-N-(1-hydroxy-1,3-dihydrobenzo[c][1,2]oxaborol-6-yl)pyrazine-2-carboxamide]
MIC ([1]; 24h incubation): > 500 µM | MIC ([1]; 48h incubation): > 500 µM | MIC [2]: > 1850 µM | MIC ([3]; 24h incubation): > 500 µM | MIC ([3]; 48h incubation): > 500 µM | MIC ([4]; 24h incubation): > 500 µM | MIC ([4]; 48h incubation): > 500 µM | MIC ([5]; 24h incubation): > 500 µM | MIC ([5]; 48h incubation): > 500 µM | melting point: 246.6 to 249.4 °C | MIC ([6]; 24h incubation): > 500 µM | MIC ([6]; 48h incubation): > 500 µM | MIC ([7]; Middlebrook 7H9, resazurin, read-out: MIC M. avium): > 1850 µM | MIC ([8]; 24 h): > 500 µM | MIC ([8]; 48 h): > 500 µM | MIC ([9]; 24h incubation): > 500 µM | MIC ([9]; 48h incubation): > 500 µM | MIC ([10]; 24h incubation): > 500 µM | MIC ([10]; 48h incubation): > 500 µM | MIC ([11]; 24h incubation): > 500 µM | MIC ([11]; 48h incubation): > 500 µM | MIC ([12]; 24h incubation): > 500 µM | MIC ([12]; 48h incubation): > 500 µM | MIC ([13]; 24h incubation): > 500 µM | MIC ([13]; 48h incubation): > 500 µM | MIC [14]: 14.5 µM (≈ 3.91 µg/mL) | MIC [15]: 463 µM (≈ 125 µg/mL) | MIC ([16]; 24h incubation): > 500 µM | MIC ([16]; 48h incubation): > 500 µM | IC50 (HepG2 cell line): > 100 µM | toxicity to HepG2 up to highest tested concentration (HepG2 cell line): non-toxic | MIC ([17]; 24h incubation): > 500 µM | MIC ([17]; 48h incubation): > 500 µM | MIC ([18]; 72h incubation): > 500 µM | MIC ([18]; 120h incubation): > 500 µM | MIC ([19]; pH 6.6, MABA, Middlebrook 7H9 pH 6.6, recalculated from µg/mL, read-out: MIC Mtb H37Rv): > 370 µM | MIC ([20]; 24h incubation): > 500 µM | MIC ([20]; 48h incubation): > 500 µM | MIC ([21]; Middlebrook 7H9, resazurin, recalculated from µg/mL, read-out: MIC Mtb H37Ra): > 1850 µM | MIC ([22]; 24h incubation): > 500 µM | MIC ([22]; 48h incubation): > 500 µM
